Key:
[1] = Human clinical tests, reduction of plaque formation; format: in vivo
[2] = tested on: four dental plaque organisms; assay: Antibacterial effect on the four dental plaque organisms (summary in words); format: cell-based; details: solutions without TCHE
Method: Slurries and solutions described below are prepared to determine effectiveness in terms of minimum inhibitory concentration (MIC) of various antibacterial agents against a variety of oral bacterial organisms implicated in formation of plaque and leading to gingivitis on dental surfaces. Soft plaque contains about 1.7×10^11 organism/gm. (net weight). The antibacterial agents are admixed with anionic materials, particularly anionic surface active agent often commonly employed in oral compositions and polyphosphate anticalculus agent.
Minimum inhibitory concentration (MIC) of antibacterial agent is used to evaluate the efficacy of the agent in vitro. […] The smaller the MIC value the greater is the efficacy of the antibacterial agent to inhibit the growth of the bacteria. The in vitro MIC data is related to the efficacy of the dentifrice in vivo since retention and release of antibacterial agent into the oral cavity after toothbrushing is in the range of mcg/ml.

[3] = Adsorption of TCHE to saliva coated tooth mineral hydroxyapatite; design: species or system human; details: for % of TCHE Adsorbed to Coated HA: 37°, 3 hours
Method: The adsorption to and release from tooth minerals for antiplaque/ antitartar efficacy of agents is assessed by adsorption of antibacterial agent to saliva coated tooth mineral hydroxyapatite in the presence and the absence of pyrophosphate (soluble tetrasodium pyrophosphate)/Gantrez/NaF.
200 mg. of hydroxyapatite (HA) is treated with human saliva for 2 hours. The excess saliva is washed with a buffer and saliva coated HA is used for adsorption studies. Various concentrations of TCHE in SLS or in SLS/pyrophosphate/Gantrez/NaF are mixed with the coated HA and incubated at 37° for 3 hours under continuous agitation. At the end of incubation period, the mixtures are centrifuged, HA separated and the amounts of TCHE adsorbed determined by estimating TCHE in the supernatant at […] in a Gilford spectrophotometer. The amounts adsorbed are calculated by the difference between the amount added and the amount left in the supernatant after the incubation with coated HA. The table below summarizes the data.

Bacteriodes gingivalis = assay: Antibacterial activity of dentifrice extracts, inhibition of growth; format: cell-based
Method: The dentifrice described in Example 3A is compared with the same composition except without any TCHE and with added 0.50 parts of water. Aqueous extracts of each dentifrice are prepared as follows: 50 ml of distilled water is added to 1.0 gm of each dentifrice, mixed well for a couple of hours with stirring bar and centrifuged, after which the supernatant is collected as aqueous extract. Antibacterial activity of the dentifrice extracts are evaluated on Bacteriodes gingivalis.

CC(C)(C)CC(C)(C)c1ccc(OCCOCC[N+](C)(C)Cc2ccccc2)cc1 [BTC, benzthonium chloride]
reducing plaque formation ([1]; 0.075% BTC and 1% pyrophosphate dissolved in water): is not
reducing plaque formation ([1]; 0.075% BTC dissolved in water): effective in reducing plaque formation

[H]/N=C(\N/C(=N/[H])NCCCCCCNC(=N)NC(=N)Nc1ccc(Cl)cc1)Nc1ccc(Cl)cc1 [CH, chlorhexidine digluconate]
reducing plaque formation ([1]; 0.1% CH and 1% sodium N-lauroyl sarcosinate dissolved in water): is not
reducing plaque formation ([1]; 0.1% CH dissolved in water): effective in reducing plaque formation

CCCCCCCCCCCCOS(=O)(=O)[O-].[Na+] [SLS, sodium lauryl sulfate]
antibacterial effect [2]: ineffective

Oc1cc(Cl)ccc1Oc1ccc(Cl)cc1Cl [TCHE, 2,4,4'-trichloro-2'-hydroxydiphenyl ether]
% of TCHE Adsorbed to Coated HA ([3]; 0.005% TCHE in 1% SLS, 0.5% Gantrez, 2% pyrophosphate/0.24% NaF): 80%
% of TCHE Adsorbed to Coated HA ([3]; 0.005% TCHE in 1% SLS): 80%
% of TCHE Adsorbed to Coated HA ([3]; 0.01% TCHE in 1% SLS, 0.5% Gantrez, 2% pyrophosphate/0.24% NaF): 85%
% of TCHE Adsorbed to Coated HA ([3]; 0.01% TCHE in 1% SLS): 85%
% of TCHE Adsorbed to Coated HA ([3]; 0.015% TCHE in 1% SLS, 0.5% Gantrez, 2% pyrophosphate/0.24% NaF): 86%
% of TCHE Adsorbed to Coated HA ([3]; 0.015% TCHE in 1% SLS): 85%
% of TCHE Adsorbed to Coated HA ([3]; 0.02% TCHE in 1% SLS, 0.5% Gantrez, 2% pyrophosphate/0.24% NaF): 87%
% of TCHE Adsorbed to Coated HA ([3]; 0.02% TCHE in 1% SLS): 88%
effect of addition of pyrophosphate/Gantrez/NaF on adsorption of TCHE to saliva coated tooth minerals ([3]; with vs without pyrophosphate/Gantrez/NaF): does not impair adsorption
compatibility in dentifrice composition containing anionic surfactant plus pyrophosphate with Gantrez and NaF (Bacteriodes gingivalis; from growth inhibition by dentifrice extracts): compatible
inhibition at 5 µg/mL (Bacteriodes gingivalis; read-out: Inhibition of Growth of Bacteriodes Gingivalis): 100%

From patent publication US5037637A, “Antibacterial antiplaque, anticalculus oral composition” (priority 1989, dated 1991)
